pEC50: −log10 of the molar value.
Target: T1, recombinant human pancreatic GLK (Homo sapiens, UniProt P35557)
T1 sequence (P35557 1-465): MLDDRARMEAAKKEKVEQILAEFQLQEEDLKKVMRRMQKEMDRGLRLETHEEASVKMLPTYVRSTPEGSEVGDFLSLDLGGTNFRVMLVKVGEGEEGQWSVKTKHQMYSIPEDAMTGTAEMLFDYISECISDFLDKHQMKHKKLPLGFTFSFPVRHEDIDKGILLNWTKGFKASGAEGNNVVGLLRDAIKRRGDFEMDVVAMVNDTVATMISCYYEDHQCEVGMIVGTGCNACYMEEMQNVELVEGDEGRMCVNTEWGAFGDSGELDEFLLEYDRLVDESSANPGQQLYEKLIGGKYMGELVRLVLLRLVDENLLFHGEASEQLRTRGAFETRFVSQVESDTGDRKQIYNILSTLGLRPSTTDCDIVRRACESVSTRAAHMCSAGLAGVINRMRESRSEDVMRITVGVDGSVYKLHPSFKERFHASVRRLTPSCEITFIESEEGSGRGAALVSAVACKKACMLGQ
Assay: biochemical

**Q.** `Cc1ccc(F)cc1-n1ncc2c(O[C@@H](COCCO)C(=O)Nc3ccc(Cl)cn3)ncnc21` [Example 180, (2S)—N-(5-chloropyridin-2-yl)-2-(1-(5-fluoro-2-methylphenyl)-1H-pyrazolo[3,4-d]pyrimidin-4-yloxy)-3-(2-hydroxyethoxy)propanamide] was tested. Which pEC50 did it give?
**A.** 6.03

**Q.** With `Cc1ccc(NC(=O)[C@H](COCCO)Oc2ncnc3c2cnn3Cc2ccccc2)nc1` [Example 181, (S)-2-(1-benzyl-1H-pyrazolo[3,4-d]pyrimidin-4-yloxy)-3-(2-hydroxyethoxy)-N-(5-methylpyridin-2-yl)propanamide] as the compound, how does the pEC50 read?
**A.** 5.48

**Q.** `Cc1ccc(F)cc1-n1ncc2c(O[C@@H](COCCO)C(=O)Nc3ccc(C#N)cn3)ncnc21` [Example 182, (2S)—N-(5-cyanopyridin-2-yl)-2-(1-(5-fluoro-2-methylphenyl)-1H-pyrazolo[3,4-d]pyrimidin-4-yloxy)-3-(2-hydroxyethoxy)propanamide] was tested. Which pEC50 did it give?
**A.** 5.52

**Q.** `Cc1ccc(C#N)cc1-n1ncc2c(O[C@@H](COCCO)C(=O)Nc3ccc(C#N)cn3)ncnc21` [Example 183, (2S)-2-(1-(5-cyano-2-methylphenyl)-1H-pyrazolo[3,4-d]pyrimidin-4-yloxy)-N-(5-cyanopyridin-2-yl)-3-(2-hydroxyethoxy)propanamide] was tested. Which pEC50 did it give?
**A.** 5.11

**Q.** `Cc1ccc(NC(=O)[C@H](COCCO)Oc2ncnc3c2cnn3-c2cc(C#N)ccc2C)nc1` [Example 184, (2S)-2-(1-(5-cyano-2-methylphenyl)-1H-pyrazolo[3,4-d]pyrimidin-4-yloxy)-3-(2-hydroxyethoxy)-N-(5-methylpyridin-2-yl)propanamide] was tested. Which pEC50 did it give?
**A.** 5.82

**Q.** With `Cc1ccc(C#N)cc1-n1ncc2c(O[C@@H](COCCO)C(=O)Nc3ccc(Cl)cn3)ncnc21` [Example 185, (2S)—N-(5-chloropyridin-2-yl)-2-(1-(5-cyano-2-methylphenyl)-1H-pyrazolo[3,4-d]pyrimidin-4-yloxy)-3-(2-hydroxyethoxy)propanamide] as the compound, how does the pEC50 read?
**A.** 5.43

**Q.** `CCOC[C@H](Oc1ncnc2c1cnn2-c1cc(C)ccc1C)C(=O)Nc1ccc(C#N)cn1` [Example 186, (2S)—N-(5-cyanopyridin-2-yl)-2-(1-(2,5-dimethylphenyl)-1H-pyrazolo[3,4-d]pyrimidin-4-yloxy)-3-ethoxypropanamide] was tested. Which pEC50 did it give?
**A.** 5.74

**Q.** `Cc1cnc(NC(=O)[C@H](COC2CCC2)Oc2ncnc3c2cnn3-c2cnccc2C)cn1` [Example 188, (2S)-3-cyclobutoxy-N-(5-methylpyrazin-2-yl)-2-(1-(4-methylpyridin-3-yl)-1H-pyrazolo[3,4-d]pyrimidin-4-yloxy)propanamide] was tested. Which pEC50 did it give?
**A.** 5.96

**Q.** How did the pEC50 turn out when `C[C@H](CO)OC[C@H](Oc1ncnc2c1cnn2-c1ncccc1Cl)C(=O)Nc1ccc(C#N)cn1` [Example 189, (2S)-2-(1-(3-chloropyridin-2-yl)-1H-pyrazolo[3,4-d]pyrimidin-4-yloxy)-N-(5-cyanopyridin-2-yl)-3-((R)-1-hydroxypropan-2-yloxy)propanamide] was run?
**A.** 6.22

**Q.** `C[C@H](CO)OC[C@H](Oc1ncnc2c1cnn2-c1ncccc1Cl)C(=O)Nc1ccc(Cl)cn1` [Example 190, (2S)—N-(5-chloropyridin-2-yl)-2-(1-(3-chloropyridin-2-yl)-1H-pyrazolo[3,4-d]pyrimidin-4-yloxy)-3-((R)-1-hydroxypropan-2-yloxy)propanamide] was tested. Which pEC50 did it give?
**A.** 6.43

**Q.** `C[C@H](CO)OC[C@H](Oc1ncnc2c1cnn2-c1ncccc1Cl)C(=O)Nc1ccc(F)cn1` [Example 191, (2S)-2-(1-(3-chloropyridin-2-yl)-1H-pyrazolo[3,4-d]pyrimidin-4-yloxy)-N-(5-fluoropyridin-2-yl)-3-((R)-1-hydroxypropan-2-yloxy)propanamide] was tested. Which pEC50 did it give?
**A.** 6.08

**Q.** `C[C@@H](CO)OC[C@H](Oc1ncnc2c1cnn2-c1ncccc1Cl)C(=O)Nc1ccc(F)cn1` [Example 192, (2S)-2-(1-(3-chloropyridin-2-yl)-1H-pyrazolo[3,4-d]pyrimidin-4-yloxy)-N-(5-fluoropyridin-2-yl)-3-((S)-1-hydroxypropan-2-yloxy)propanamide] was tested. Which pEC50 did it give?
**A.** 6.44

**Q.** With `C[C@@H](CO)OC[C@H](Oc1ncnc2c1cnn2-c1ncccc1Cl)C(=O)Nc1ccc(Cl)cn1` [Example 193, (2S)—N-(5-chloropyridin-2-yl)-2-(1-(3-chloropyridin-2-yl)-1H-pyrazolo[3,4-d]pyrimidin-4-yloxy)-3-((S)-1-hydroxypropan-2-yloxy)propanamide] as the compound, how does the pEC50 read?
**A.** 5.48

**Q.** With `Cc1ccc(NC(=O)[C@H](COCCO)Oc2ncnc3c2cnn3-c2ccccc2Cl)nc1` [Example 194, (2S)-2-(1-(2-chlorophenyl)-1H-pyrazolo[3,4-d]pyrimidin-4-yloxy)-3-(2-hydroxyethoxy)-N-(5-methylpyridin-2-yl)propanamide] as the compound, how does the pEC50 read?
**A.** 6.24

**Q.** `Cc1ccc(NC(=O)[C@H](COCCO)Oc2ncnc3c2nnn3-c2ccccc2Cl)nc1` [Example 195, (2S)-2-(3-(2-chlorophenyl)-3H-[1,2,3]triazolo[4,5-d]pyrimidin-7-yloxy)-3-(2-hydroxyethoxy)-N-(5-methylpyridin-2-yl)propanamide] was tested. Which pEC50 did it give?
**A.** 5.70

**Q.** How did the pEC50 turn out when `CCOC[C@H](Oc1ncnc2c1nnn2-c1ccccc1Cl)C(=O)Nc1ccc(C#N)cn1` [Example 197, (2S)-2-(3-(2-chlorophenyl)-3H-[1,2,3]triazolo[4,5-d]pyrimidin-7-yloxy)-N-(5-cyanopyridin-2-yl)-3-ethoxypropanamide] was run?
**A.** 6.22

**Q.** `Cc1ccccc1-n1nnc2c(O[C@@H](COCCO)C(=O)Nc3ccc(Cl)cn3)ncnc21` [Example 198, (2S)—N-(5-chloropyridin-2-yl)-3-(2-hydroxyethoxy)-2-(3-o-tolyl-3H-[1,2,3]triazolo[4,5-d]pyrimidin-7-yloxy)propanamide] was tested. Which pEC50 did it give?
**A.** 5.66

**Q.** How did the pEC50 turn out when `O=C(Nc1ccccn1)[C@H](COCCO)Oc1ncnc2c1cnn2-c1ccccc1C(F)(F)F` [Example 199, (2S)-3-(2-hydroxyethoxy)-N-(pyridin-2-yl)-2-(1-(2-(trifluoromethyl)phenyl)-1H-pyrazolo[3,4-d]pyrimidin-4-yloxy)propanamide] was run?
**A.** 5.96

**Q.** `C[C@H](CO)OC[C@H](Oc1ncnc2c1cnn2-c1ccccc1Cl)C(=O)Nc1ccccn1` [Example 200, (2S)-2-(1-(2-chlorophenyl)-1H-pyrazolo[3,4-d]pyrimidin-4-yloxy)-3-((R)-1-hydroxypropan-2-yloxy)-N-(pyridin-2-yl)propanamide] was tested. Which pEC50 did it give?
**A.** 6.36

**Q.** `O=C(Nc1ccccn1)[C@H](COCCO)Oc1ncnc2c1cnn2-c1ccccc1Cl` [Example 201, (2S)-2-(1-(2-chlorophenyl)-1H-pyrazolo[3,4-d]pyrimidin-4-yloxy)-3-(2-hydroxyethoxy)-N-(pyridin-2-yl)propanamide] was tested. Which pEC50 did it give?
**A.** 6.19

**Q.** How did the pEC50 turn out when `O=C(Nc1ccc(Cl)cn1)[C@H](COCCO)Oc1ncnc2c1cnn2-c1cccc(Cl)c1Cl` [Example 202, (2S)—N-(5-chloropyridin-2-yl)-2-(1-(2,3-dichlorophenyl)-1H-pyrazolo[3,4-d]pyrimidin-4-yloxy)-3-(2-hydroxyethoxy)propanamide] was run?
**A.** 6.47

**Q.** With `N#Cc1ccc(NC(=O)[C@H](COCCO)Oc2ncnc3c2cnn3-c2cccc(Cl)c2Cl)nc1` [Example 203, (2S)—N-(5-cyanopyridin-2-yl)-2-(1-(2,3-dichlorophenyl)-1H-pyrazolo[3,4-d]pyrimidin-4-yloxy)-3-(2-hydroxyethoxy)propanamide] as the compound, how does the pEC50 read?
**A.** 6.08

**Q.** `Cc1ccc(NC(=O)[C@H](COC[C@H](C)O)Oc2ncnc3c2cnn3-c2ncccc2Cl)nc1` [Example 204, (2S)-2-(1-(3-chloropyridin-2-yl)-1H-pyrazolo[3,4-d]pyrimidin-4-yloxy)-3-((S)-2-hydroxypropoxy)-N-(5-methylpyridin-2-yl)propanamide] was tested. Which pEC50 did it give?
**A.** 5.89

**Q.** With `Cc1ccc(NC(=O)[C@H](CN2CC(O)C2)Oc2ncnc3c2cnn3-c2ccccc2Cl)nc1` [Example 205, (2S)-2-(1-(2-chlorophenyl)-1H-pyrazolo[3,4-d]pyrimidin-4-yloxy)-3-(3-hydroxyazetidin-1-yl)-N-(5-methylpyridin-2-yl)propanamide] as the compound, how does the pEC50 read?
**A.** 6.62

**Q.** `Cc1ccc(NC(=O)[C@H](CN2CC(O)C2)Oc2ncnc3c2cnn3-c2ncccc2Cl)nc1` [Example 206, (2S)-2-(1-(3-chloropyridin-2-yl)-1H-pyrazolo[3,4-d]pyrimidin-4-yloxy)-3-(3-hydroxyazetidin-1-yl)-N-(5-methylpyridin-2-yl)propanamide] was tested. Which pEC50 did it give?
**A.** 6.24

**Q.** How did the pEC50 turn out when `Cc1c(C#N)cccc1-n1ncc2c(O[C@@H](COCCO)C(=O)Nc3ccc(C#N)cn3)ncnc21` [Example 207, (2S)-2-(1-(3-cyano-2-methylphenyl)-1H-pyrazolo[3,4-d]pyrimidin-4-yloxy)-N-(5-cyanopyridin-2-yl)-3-(2-hydroxyethoxy)propanamide] was run?
**A.** 5.30

**Q.** How did the pEC50 turn out when `Cc1ccc(NC(=O)[C@H](COCCO)Oc2ncnc3c2cnn3-c2cccc(C#N)c2C)nc1` [Example 208, (2S)-2-(1-(3-cyano-2-methylphenyl)-1H-pyrazolo[3,4-d]pyrimidin-4-yloxy)-3-(2-hydroxyethoxy)-N-(5-methylpyridin-2-yl)propanamide] was run?
**A.** 5.55

**Q.** `Cc1c(C#N)cccc1-n1ncc2c(O[C@@H](COCCO)C(=O)Nc3ccc(Cl)cn3)ncnc21` [Example 209, (2S)—N-(5-chloropyridin-2-yl)-2-(1-(3-cyano-2-methylphenyl)-1H-pyrazolo[3,4-d]pyrimidin-4-yloxy)-3-(2-hydroxyethoxy)propanamide] was tested. Which pEC50 did it give?
**A.** 5.82

**Q.** `CCOC[C@H](Oc1ncnc2c1cnn2-c1nccn1C)C(=O)Nc1ccc(Cl)cn1` [Example 210, (2S)—N-(5-chloropyridin-2-yl)-3-ethoxy-2-(1-(1-methyl-1H-imidazol-2-yl)-1H-pyrazolo[3,4-d]pyrimidin-4-yloxy)propanamide] was tested. Which pEC50 did it give?
**A.** 5.92

— US8143263B2, “Therapeutic agents” (Astrazeneca AB, priority 2008, dated 2012)
